Test results from patent publication US9212168B2 (priority 2011, dated 2015).
pEC50: −log10 of the molar value.

Experiments:
[1] = test system: HCV genotype 1a replicon; experiment: HCV genotype 1a replicon assay (NS3 protease activity readout); type: cell-based, hepatitis C virus; conditions: for pEC50: Hepatitis C virus, read-out: Genotype 1a, HCV genotype 1a replicon; for Genotype 1a: HCV genotype 1a replicon
Method in brief: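 Genotype 1a subgenomic replicon cells (APC89, Huh7.5) were treated with compound dose-responses in G418-free medium, 0.5% DMSO final, for 48 or 72 hours at 37° C. Lysate NS3/4a protease activity measured with 15 μM FRET substrate, 20 min at 37° C (ex 340/em 509 nm); EC50 by 4-parameter fit.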

[2] = test system: HCV genotype 1b replicon; experiment: HCV genotype 1b replicon assay (Renilla luciferase readout); type: cell-based, hepatitis C virus; conditions: for pEC50: Hepatitis C virus, read-out: Genotype 1b; for Genotype 1b: HCV genotype 1b replicon
Method in brief: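 Huh7-derived APC144 subgenomic replicon cells carrying Renilla luciferase–NS3-NS5B, seeded 10,000/well without G418, then treated with compound dose-responses for 48 h at 37 °C (0.5% DMSO final). Luciferase signal fitted by 4-parameter model to EC50, reported as pEC50.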

SMILES | pEC50 [1] | pEC50 [2] | Genotype 1a [1] | Genotype 1b [2]
COC(=O)N[C@H](C(=O)N1C[C@@H](C(N)=O)C[C@H]1c1nc(-c2ccc(-c3cc(Cl)c(NC(=O)c4ccc(N5CCN(C(=O)C(C)(C)CO)C[C@H]5C)nc4)cc3OC(F)(F)F)cc2)c[nH]1)C(C)C [Example 15-3] | > 10.00 | > 10.00 | – | –
[2H]C([2H])([2H])C1(C([2H])([2H])[2H])CC1C(=O)N1CCN(c2ccc(C(=O)Nc3cc(OC(F)(F)F)c(-c4ccc(-c5c[nH]c([C@@H]6C[C@H](C)CN6C(=O)[C@@H](NC(=O)OC)C(C)C)n5)cc4)cc3F)cn2)[C@H](C)C1 (stereo partly shown) [Example 1-92] | – | – | D (D represents pEC50>10 (EC50<0.1 nM)) | D (D represents pEC50>10 (EC50<0.1 nM))
COC(=O)N[C@H](C(=O)N1C[C@@H](OC)C[C@H]1c1nc(-c2ccc(-c3cc(Cl)c(NC(=O)c4ccc(N5CCN(C(=O)C(C)(C)C)C[C@H]5C)nc4)cc3OC(F)(F)F)cc2)c(CO)[nH]1)C1CCOCC1 [Example 28-15] | – | – | D (D represents pEC50>10 (EC50<0.1 nM)) | D (D represents pEC50>10 (EC50<0.1 nM))
COC(=O)NC(C(=O)N1CC(OC)CC1c1nc(-c2ccc(-c3cc(Cl)c(NC(=O)c4ccc(N5CCN(C(=O)C(C)(C)C)CC5C)nc4)cc3OC(F)(F)F)cc2)c[nH]1)C(C)OC (stereo not shown) [Example 16-3] | – | – | D (D represents pEC50>10 (EC50<0.1 nM)) | D (D represents pEC50>10 (EC50<0.1 nM))
COC(=O)N[C@H](C(=O)N1C[C@@H](C)C[C@H]1c1nc(-c2ccc(-c3ccc(C(=O)Nc4ccc(N5CCN(C(=O)C(C)(C)C)C[C@H]5C)nc4)cc3OC(F)(F)F)cc2)c[nH]1)C1CCOCC1 [Example 22-3] | – | – | D (D represents pEC50>10 (EC50<0.1 nM)) | D (D represents pEC50>10 (EC50<0.1 nM))
CNC(=O)N1C[C@@H](C)N(c2ccc(C(=O)Nc3cc(OC(F)(F)F)c(-c4ccc(-c5c[nH]c([C@@H]6C[C@H](C)CN6C(=O)[C@@H](c6ccccc6)N6CCCCC6)n5)cc4)cc3Cl)cn2)C[C@@H]1C [Example 5-9] | > 10.00 | > 10.00 | – | –
COC(=O)N[C@H](C(=O)N1C[C@@H](C)C[C@H]1c1nc(-c2ccc(-c3ccc(NC(=O)c4ccc(N5CCN(C(=O)[C@H]6CC6(C)C)C[C@H]5C)nc4)cc3C(F)(F)F)cc2)c[nH]1)C(C)C [Example 1-62] | – | – | D (D represents pEC50>10 (EC50<0.1 nM)) | D (D represents pEC50>10 (EC50<0.1 nM))
COC(=O)N[C@H](C(=O)N1C[C@@H](C)C[C@H]1c1nc(-c2ccc(-c3cc(Cl)c(NC(=O)c4ccc(N5CCN(C(=O)C(C)(C)C)C[C@H]5C)nc4)cc3OC(F)(F)F)cc2)c(CO)[nH]1)C1CCOCC1 [Example 20-2] | – | – | D (D represents pEC50>10 (EC50<0.1 nM)) | D (D represents pEC50>10 (EC50<0.1 nM))
COC(=O)N[C@H](C(=O)N1C[C@@H](C)C[C@H]1c1nc(-c2ccc(-c3cc(Cl)c(NC(=O)c4ccc(N5C[C@H](C)N(C(=O)[C@H]6CC6(C)C)C[C@H]5C)nc4)cc3C(F)(F)F)cc2)c[nH]1)C(C)C [Example 1-11] | – | – | D (D represents pEC50>10 (EC50<0.1 nM)) | D (D represents pEC50>10 (EC50<0.1 nM))
COC(=O)N[C@H](C(=O)N1C[C@@H](C)C[C@H]1c1nc(-c2ccc(-c3cc(Cl)c(NC(=O)c4ccc(N5CCN(C(=O)C(C)(C)CO)C[C@H]5C)nc4)cc3OC(F)(F)F)cc2)c[nH]1)[C@H](C)O [Example 13-17] | > 10.00 | > 10.00 | – | –
COC(=O)N[C@H](C(=O)N1C[C@@H](SC)C[C@H]1c1nc(-c2ccc(-c3cc(Cl)c(NC(=O)c4ccc(N5CCN(C(=O)[C@H]6CC6(C)C)C[C@H]5C)nc4)cc3OC(F)(F)F)cc2)c[nH]1)C(C)C [Example 5-4] | > 10.00 | > 10.00 | – | –
COC(=O)N[C@H](C(=O)N1C[C@@H](C#N)C[C@H]1c1nc(-c2ccc(-c3cc(Cl)c(NC(=O)c4ccc(N5CCN(C(=O)C(C)(C)CO)C[C@H]5C)nc4)cc3OC(F)(F)F)cc2)c[nH]1)C(C)C [Example 15-12] | > 10.00 | > 10.00 | – | –
COC(=O)N[C@H](C(=O)N1[C@H](c2nc(-c3ccc(-c4ccc(C(=O)Nc5ccc(N6CCN(C(=O)C7CC7(C)C)C[C@H]6C)nc5)cc4OC(F)(F)F)cc3)c[nH]2)C[C@@H]2CCCC[C@@H]21)C(C)C (stereo partly shown) [Example 6-12] | 9.00 to 10.00 | > 10.00 | – | –
C[C@H]1C[C@@H](c2nc(-c3ccc(-c4cc(Cl)c(NC(=O)c5ccc(N6CCN(C(=O)C(C)(C)C)C[C@H]6C)nc5)cc4OC(F)(F)F)cc3)c[nH]2)N(C(=O)[C@@H](c2ccccc2)N2CCCCC2)C1 [Example 13-1] | > 10.00 | > 10.00 | – | –
COC(=O)N[C@H](C(=O)N1C[C@@H](N(C)C)C[C@H]1c1nc(-c2ccc(-c3ccc(NC(=O)c4ccc(N5CCN(C(=O)c6c[nH]cn6)C[C@H]5C)nc4)cc3)cc2)c[nH]1)C(C)C [Example 2-1] | – | – | C (C represents pEC50 between and 9 and about 10, (EC50 between 1 nM and 0.1 nM)) | D (D represents pEC50>10 (EC50<0.1 nM))
COC(=O)N[C@H](C(=O)N1C[C@@H](C)C[C@H]1c1nc(-c2ccc(-c3cc(Cl)c(NC(=O)c4ccc(N5CCN(C(=O)c6c[nH]cn6)C[C@H]5C)nc4)cc3OC(F)(F)F)cc2)c[nH]1)C(C)C [Example 1-18] | – | – | D (D represents pEC50>10 (EC50<0.1 nM)) | D (D represents pEC50>10 (EC50<0.1 nM))
CNC(=O)N1CCC[C@@]1(C)C(=O)N1CCN(c2ccc(NC(=O)c3ccc(-c4ccc(-c5c[nH]c([C@@H]6C[C@H](C)CN6C(=O)[C@@H](NC(=O)OC)C(C)C)n5)cc4)c(OC(F)(F)F)c3)cn2)[C@H](C)C1 [Example 4-6] | – | – | D (D represents pEC50>10 (EC50<0.1 nM)) | D (D represents pEC50>10 (EC50<0.1 nM))
COC(=O)N[C@H](C(=O)N1C[C@@H](C)C[C@H]1c1nc(-c2ccc(-c3ccc(NC(=O)c4ccc(N5CCN(C(=O)C(C)(C)C)C[C@H]5C)nc4)cc3OC(F)(F)F)cc2)c[nH]1)C(C)C [Example 1-75] | – | – | D (D represents pEC50>10 (EC50<0.1 nM)) | D (D represents pEC50>10 (EC50<0.1 nM))
COC(=O)N[C@H](C(=O)N1C[C@@H](C)C[C@H]1c1nc(-c2ccc(-c3cc(Cl)c(NC(=O)c4ccc(N5CCN(C(=O)C(C)(C)CO)C[C@H]5C)nc4)cc3OC(F)(F)F)cc2)c[nH]1)C(C)C [Example 12-8] | > 10.00 | > 10.00 | – | –
COC(=O)N[C@H](C(=O)N1C[C@@H](OC)C[C@H]1c1nc(-c2ccc(-c3ccc(C(=O)Nc4ccc(N5CCN(C(=O)C(C)(C)C)C[C@H]5C)nc4)cc3OC(F)(F)F)cc2)c[nH]1)C1CCOCC1 [Example 22-12] | – | – | D (D represents pEC50>10 (EC50<0.1 nM)) | D (D represents pEC50>10 (EC50<0.1 nM))
COC(=O)N[C@H](C(=O)N1C[C@@H](C)C[C@H]1c1nc(-c2ccc(-c3ccc(C(=O)Nc4ccc(N5C[C@H](C)N(C(=O)[C@@]6(O)CC6(C)C)C[C@H]5C)nc4)cc3OC(F)(F)F)cc2)c(Cl)[nH]1)C(C)C [Example 4-37] | – | – | D (D represents pEC50>10 (EC50<0.1 nM)) | D (D represents pEC50>10 (EC50<0.1 nM))
COC(=O)NC(C(=O)N1C[C@@H](C)C[C@H]1c1nc(-c2ccc(-c3cc(Cl)c(NC(=O)c4ccc(N5CCN(C(=O)C(C)(C)C)C[C@H]5C)nc4)cc3OC(F)(F)F)cc2)c[nH]1)C1CCCOC1 (stereo partly shown) [Example 13-38] | > 10.00 | > 10.00 | – | –
CNC(=O)N1C[C@@H](C)N(c2ccc(NC(=O)c3ccc(-c4ccc(-c5c[nH]c([C@@H]6C[C@H](C)CN6C(=O)[C@@H](NC(=O)OC)C(C)C)n5)cc4)c(OC(F)(F)F)c3)cn2)C[C@@H]1C [Example 4-14] | – | – | C (C represents pEC50 between and 9 and about 10, (EC50 between 1 nM and 0.1 nM)) | D (D represents pEC50>10 (EC50<0.1 nM))
COC(=O)N[C@H](C(=O)N1C[C@@H](C)C[C@H]1c1nc(-c2ccc(-c3cc(F)c(NC(=O)c4ccc(N5C[C@H](C)N(C(=O)[C@H]6CC6(C)C)C[C@H]5C)nc4)cc3OC(F)(F)F)cc2)c[nH]1)C(C)C [Example 1-13] | – | – | D (D represents pEC50>10 (EC50<0.1 nM)) | D (D represents pEC50>10 (EC50<0.1 nM))
COC(=O)N[C@H](C(=O)N1C[C@@H](C)C[C@H]1c1nc(-c2ccc(-c3cc(Cl)c(NC(=O)c4ccc(N5CCN(C(=O)C(C)(C)C)[C@H](C)C5)nc4)cc3OC(F)(F)F)cc2)c[nH]1)C1CCOCC1 [Example 20-6] | – | – | D (D represents pEC50>10 (EC50<0.1 nM)) | D (D represents pEC50>10 (EC50<0.1 nM))
COC(=O)N[C@H](C(=O)N1C[C@@H](C)C[C@H]1c1nc(-c2ccc(-c3cc(F)c(NC(=O)c4ccc(N5C[C@H](C)N(C(=O)[C@H]6CC6(C)C)C[C@H]5C)nc4)cc3C(F)(F)F)cc2)c[nH]1)C(C)C [Example 1-7] | – | – | D (D represents pEC50>10 (EC50<0.1 nM)) | D (D represents pEC50>10 (EC50<0.1 nM))
COC(=O)N[C@H](C(=O)N1C[C@@H](OC)C[C@H]1c1nc(-c2ccc(-c3cc(Cl)c(NC(=O)c4ccc(N5CCN(C(=O)C(C)(C)C)C[C@H]5C)nc4)cc3OC(F)(F)F)cc2)c(CO)[nH]1)C(C)C [Example 5-18] | > 10.00 | > 10.00 | – | –
COC(=O)N[C@H](C(=O)N1C[C@@H](C)C[C@H]1c1nc(-c2ccc(-c3cc(F)c(NC(=O)c4ccc(N5CCN(C(=O)[C@H]6CC6(C)C)C[C@H]5C)nc4)cc3C(F)(F)F)cc2)c[nH]1)C(C)C [Example 1-5] | – | – | D (D represents pEC50>10 (EC50<0.1 nM)) | D (D represents pEC50>10 (EC50<0.1 nM))
COC(=O)N[C@H](C(=O)N1C[C@@H](OC)C[C@H]1c1nc(-c2ccc(-c3cc(Cl)c(NC(=O)c4ccc(N5C[C@H](C)N(C(=O)[C@]6(C)CCCN6C(=O)CN(C)C)C[C@H]5C)nc4)cc3OC(F)(F)F)cc2)c[nH]1)C1CCOCC1 [Example 28-19] | – | – | C (C represents pEC50 between and 9 and about 10, (EC50 between 1 nM and 0.1 nM)) | D (D represents pEC50>10 (EC50<0.1 nM))
